According to US9783537B2, “3-(4-ethylnylphenyl) pyridopyrimidinone compounds and process for preparation thereof useful as potential anticancer agents” (Council of Scientific & Industrial Research, priority 2013, dated 2017):
Where two headings read alike, the source gives them in different places.

Columns and labels:
[1] = test system: two prostate cancer cell line (PC-3, DU-145); test: in vitro anticancer activity, prostate panel; format: cell-based; settings: Homo sapiens; two prostate cancer cell lines, exposure at least 48 h; read-out: GI50, range over panel
A549/ATCC = test: SRB 48 h growth assay, Non-small Cell Lung A549/ATCC; format: cell-based, human
TK-10 = test: SRB 48 h growth assay, Renal TK-10; format: cell-based, human; settings: TK-10, Renal; for GI50: Homo sapiens
NCI-H522 = test: SRB 48 h growth assay, Non-small Cell Lung NCI-H522; format: cell-based, human
[2] = in vitro anticancer activity, melanoma panel; format: cell-based; settings: Homo sapiens; nine melanoma cell lines, exposure at least 48 h; read-out: GI50, range over panel
M14 = test: SRB 48 h growth assay, Melanoma M14; format: cell-based, human; settings: for GI50: Homo sapiens
MDA-MB-435 = test: SRB 48 h growth assay, Melanoma MDA-MB-435; format: cell-based, human; settings: Homo sapiens, MDA-MB-435, Melanoma
SW-620 = test: SRB 48 h growth assay, Colon SW-620; format: cell-based, human; settings: SW-620, Colon
OVCAR-8 = test: SRB 48 h growth assay, Ovarian OVCAR-8; format: cell-based, human; settings: Homo sapiens, OVCAR-8, Ovarian
HS578T = test: SRB 48 h growth assay, Breast HS578T; format: cell-based, human; settings: Homo sapiens, Hs-578T
SNB-75 = test: SRB 48 h growth assay, CNS SNB-75; format: cell-based, human; settings: SNB-75, CNS; for GI50: Homo sapiens
HCT-116 = test: SRB 48 h growth assay, Colon HCT-116; format: cell-based, human; settings: HCT-116, Colon
[3] = in vitro anticancer activity, non-small cell lung panel; format: cell-based; settings: Homo sapiens; nine non-small cell lung cancer cell lines, exposure at least 48 h; read-out: GI50, range over panel
RXF393 = test: SRB 48 h growth assay, Renal RXF393; format: cell-based, human
LOX IMVI = test: SRB 48 h growth assay, Melanoma LOX IMVI; format: cell-based, human; settings: for GI50: Homo sapiens
SNB-19 = test: SRB 48 h growth assay, CNS SNB-19; format: cell-based, human; settings: Homo sapiens, SNB-19, CNS
BT-549 = test: SRB 48 h growth assay, Breast BT-549; format: cell-based, human; settings: BT-549, Breast
PC-3 = test: SRB 48 h growth assay, Prostate PC-3; format: cell-based, human; settings: PC-3, Prostate
SK-MEL-5 = test: SRB 48 h growth assay, Melanoma SK-MEL-5; format: cell-based, human; settings: SK-MEL-5, Melanoma
MDA-MB-231/ATCC = test: SRB 48 h growth assay, Breast MDA-MB-231/ATCC; format: cell-based, human
RPMI-8226 = test: SRB 48 h growth assay, Leukemia RPMI-8226; format: cell-based, human; settings: RPMI-8226, Leukemia; for GI50: Homo sapiens
MCF7 = test: SRB 48 h growth assay, Breast MCF7; format: cell-based, human; settings: Homo sapiens
[4] = test system: six leukemia cancer cell lines (CCRF-CEM, HL-60, K-562, MOLT-4, SR and RPMI-8226); test: in vitro anticancer activity, leukemia panel; format: cell-based; settings: Homo sapiens, exposure at least 48 h, read-out: GI50, range over panel
HL-60(TB) = test: SRB 48 h growth assay, Leukemia HL-60(TB); format: cell-based, human
CCRF-CEM = test: SRB 48 h growth assay, Leukemia CCRF-CEM; format: cell-based, human; settings: Homo sapiens
UACC-62 = test: SRB 48 h growth assay, Melanoma UACC-62; format: cell-based, human; settings: UACC-62, Melanoma
KM12 = test: SRB 48 h growth assay, Colon KM12; format: cell-based, human
NCI-H23 = test: SRB 48 h growth assay, Non-small Cell Lung NCI-H23; format: cell-based, human; settings: for GI50: Homo sapiens
[5] = Homo sapiens, read-out: Growth Inhibition GI50
[6] = Homo sapiens, read-out: Log10 GI50 (converted)
[7] = Homo sapiens, read-out: Log10 LC50 (converted)
[8] = read-out: Growth Inhibition GI50
[9] = read-out: Log10 GI50 (converted)
[10] = read-out: Log10 LC50 (converted)

With `C#Cc1ccc(-n2c(/C=C/c3ccc4ccccc4n3)nc3ncccc3c2=O)cc1` [4t, (E)-3-(4-Ethynylphenyl)-2-(2-(quinolin-2-yl)vinyl)pyrido[2,3-d]pyrimidin-4(3H)-one] the GI50 [1] was 3.87 to 4.1 µM, the “Log10 TGI50” value (A549/ATCC) was −5.74 and the GI50 (A549/ATCC; [5]) was 0.35 µM. The GI50 (A549/ATCC; [6]) was 0.355 µM, the CC50 (A549/ATCC; [7]) was > 100 µM and the GI50 (TK-10; [8]) was 0.43 µM. For the same compound, the GI50 (TK-10; [9]) was 0.437 µM, the “Log10 TGI50” value (TK-10) was −5.82 and the “Log10 TGI50” value (NCI-H522) was −6.10. For the same compound, the GI50 (NCI-H522; [5]) was 0.27 µM, the GI50 (NCI-H522; [6]) was 0.269 µM and the CC50 (NCI-H522; [7]) was 4.9 µM. For the same compound, the GI50 [2] was 1.6 to 6.3 µM, the “Log10 TGI50” value (M14) was −6.18 and the GI50 (M14; [8]) was 0.26 µM. For the same compound, the GI50 (M14; [9]) was 0.263 µM, the GI50 (MDA-MB-435; [8]) was 0.19 µM and the GI50 (MDA-MB-435; [9]) was 0.195 µM. For the same compound, the GI50 (SW-620; [5]) was 0.35 µM, the GI50 (SW-620; [6]) was 0.355 µM and the CC50 (SW-620; [7]) was 3.89 µM. The “Log10 TGI50” value (SW-620) was −5.90, the GI50 (OVCAR-8; [8]) was 0.34 µM and the GI50 (OVCAR-8; [9]) was 0.347 µM. For the same compound, the CC50 (OVCAR-8; [10]) was > 100 µM, the GI50 (HS578T; [8]) was 0.24 µM and the GI50 (HS578T; [9]) was 0.24 µM. For the same compound, the CC50 (HS578T; [10]) was > 100 µM, the GI50 (SNB-75; [8]) was 0.33 µM and the GI50 (SNB-75; [9]) was 0.339 µM. For the same compound, the “Log10 TGI50” value (SNB-75) was −5.85, the “Log10 TGI50” value (HCT-116) was −5.92 and the GI50 (HCT-116; [5]) was 0.34 µM. The GI50 (HCT-116; [6]) was 0.347 µM, the CC50 (HCT-116; [7]) was 3.89 µM and the GI50 [3] was 1.8 to 5.66 µM. The “Log10 TGI50” value (RXF393) was −6.07, the GI50 (RXF393; Homo sapiens, RXF 393, read-out: Growth Inhibition GI50) was 0.25 µM and the GI50 (RXF393; Homo sapiens, RXF 393, read-out: Log10 GI50 (converted)) was 0.257 µM. For the same compound, the CC50 (RXF393; Homo sapiens, RXF 393, read-out: Log10 LC50 (converted)) was 5.01 µM, the “Log10 TGI50” value (LOX IMVI) was −5.99 and the GI50 (LOX IMVI; [8]) was 0.32 µM. The GI50 (LOX IMVI; [9]) was 0.324 µM, the GI50 (SNB-19; [8]) was 0.72 µM and the GI50 (SNB-19; [9]) was 0.724 µM. For the same compound, the CC50 (SNB-19; [10]) was > 100 µM, the “Log10 TGI50” value (BT-549) was −5.87 and the GI50 (BT-549; [5]) was 0.35 µM. For the same compound, the GI50 (BT-549; [6]) was 0.355 µM, the CC50 (BT-549; [7]) was 5.5 µM and the GI50 (PC-3; [5]) was 0.34 µM. The GI50 (PC-3; [6]) was 0.339 µM, the CC50 (PC-3; [7]) was > 100 µM and the “Log10 TGI50” value (PC-3) was −5.76. The GI50 (SK-MEL-5; [5]) was 0.17 µM, the GI50 (SK-MEL-5; [6]) was 0.178 µM and the CC50 (SK-MEL-5; [7]) was 0.759 µM. For the same compound, the “Log10 TGI50” value (SK-MEL-5) was −6.43, the “Log10 TGI50” value (MDA-MB-231/ATCC) was −5.93 and the GI50 (MDA-MB-231/ATCC; [5]) was 0.33 µM. For the same compound, the GI50 (MDA-MB-231/ATCC; [6]) was 0.331 µM, the CC50 (MDA-MB-231/ATCC; [7]) was > 100 µM and the GI50 (RPMI-8226; [8]) was 0.26 µM. For the same compound, the GI50 (RPMI-8226; [9]) was 0.269 µM, the “Log10 TGI50” value (RPMI-8226) was −5.99 and the GI50 (MCF7; [8]) was 0.28 µM. The GI50 (MCF7; [9]) was 0.288 µM, the CC50 (MCF7; [10]) was > 100 µM and the GI50 [4] was 3.2 to 7.35 µM. The “Log10 TGI50” value (HL-60(TB)) was −6.07, the GI50 (HL-60(TB); [5]) was 0.29 µM and the GI50 (HL-60(TB); [6]) was 0.295 µM. The CC50 (HL-60(TB); [7]) was > 100 µM, the CC50 (CCRF-CEM; CCKF-CEM, read-out: Log10 LC50 (converted)) was > 100 µM and the GI50 (CCRF-CEM; [8]) was 0.26 µM. The GI50 (CCRF-CEM; [9]) was 0.263 µM, the GI50 (UACC-62; [5]) was 0.39 µM and the GI50 (UACC-62; [6]) was 0.398 µM. For the same compound, the CC50 (UACC-62; [7]) was 9.33 µM, the “Log10 TGI50” value (UACC-62) was −5.67 and the “Log10 TGI50” value (KM12) was −5.97. It also gave a GI50 (KM12; [5]) of 0.32 µM, a GI50 (KM12; [6]) of 0.324 µM and a CC50 (KM12; [7]) of 3.47 µM. The “Log10 TGI50” value (NCI-H23) was −5.62, the GI50 (NCI-H23; [8]) was 0.7 µM and the GI50 (NCI-H23; [9]) was 0.708 µM.
